In brackets after ≈: the same amount, converted by molar mass. Several values for one entry are separate records, joined by “and”; a condition that tells them apart may be missing. Equal entries are not always repeated.
Legend:
Type in all cases: functional
[1] = system: Staphylococcus aureus; assay: Antibiofilm activity against Staphylococcus aureus ATCC 25923 assessed as inhibition of biofilm viability at 100 uM incubated for 18 to 20 hrs by resazurin staining based assay; details: time 18-20 hrs
[2] = system: Staphylococcus aureus; assay: Antibacterial activity against Staphylococcus aureus ATCC 25923 assessed as inhibition of bacterial growth at 40 uM incubated for 18 to 24 hrs by broth microdilution assay relative to control; details: time 18-24 hrs
[3] = system: Staphylococcus aureus; assay: Antibiofilm activity against Staphylococcus aureus ATCC 25923 assessed as inhibition of biofilm biomass at 100 uM incubated for 18 to 20 hrs by crystal violet staining based assay; details: time 18-20 hrs
[4] = system: Staphylococcus aureus; assay: Antibacterial activity against Staphylococcus aureus ATCC 25923 assessed as reduction in bacterial growth incubated for 18 to 20 hrs by broth microdilution assay; details: time 18-20 hrs
[5] = system: Enterococcus faecalis; assay: Antibacterial activity against Enterococcus faecalis ATCC 29212 assessed as reduction in bacterial growth incubated for 18 to 20 hrs by broth microdilution assay; details: time 18-20 hrs
[6] = system: Enterococcus faecium; assay: Antibacterial activity against vancomycin-resistant Enterococcus faecium ATCC 700221 assessed as reduction in bacterial growth incubated for 18 to 20 hrs by broth microdilution assay; details: time 18-20 hrs
[7] = system: Enterococcus faecalis; assay: Antibacterial activity against vancomycin-resistant Enterococcus faecalis ATCC 51575 assessed as reduction in bacterial growth incubated for 18 to 20 hrs by broth microdilution assay; details: time 18-20 hrs
[8] = system: Staphylococcus epidermidis; assay: Antibacterial activity against Staphylococcus epidermidis RP62A assessed as reduction in bacterial growth incubated for 18 to 20 hrs by broth microdilution assay; details: time 18-20 hrs
[9] = system: Acinetobacter baumannii; assay: Antibacterial activity against Acinetobacter baumannii NCTC 13423 assessed as reduction in bacterial growth incubated for 18 to 20 hrs by broth microdilution assay; details: time 18-20 hrs
[10] = system: Staphylococcus aureus; assay: Antibacterial activity against Staphylococcus aureus ATCC 43300 assessed as reduction in bacterial growth incubated for 18 to 20 hrs by broth microdilution assay; details: time 18-20 hrs
[11] = system: Staphylococcus aureus; assay: Antibacterial activity against […] Staphylococcus aureus ATCC 43300 assessed as reduction in bacterial growth incubated for 18 to 20 hrs by broth microdilution assay; details: time 18-20 hrs
[12] = system: Staphylococcus epidermidis; assay: Antibacterial activity against […] Staphylococcus epidermidis RP62A assessed as reduction in bacterial growth incubated for 18 to 20 hrs by broth microdilution assay; details: time 18-20 hrs
[13] = system: Pseudomonas aeruginosa; assay: Antibacterial activity against Pseudomonas aeruginosa ATCC 15442 assessed as reduction in bacterial growth incubated for 18 to 20 hrs by broth microdilution assay; details: time 18-20 hrs

Row | Structure (SMILES) | inhibition at 100 µM [1] [%] | inhibition at 40 µM [2] [%] | inhibition at 100 µM [3] [%] | MIC [4] | MIC [5] [µM] | MIC [6] [µM] | MIC [7] [µM] | MIC [8] [µM] | MIC [9] [µM] | MIC [10] [µM] | MIC [11] [µM] | MIC [12] [µM] | MIC [13] [µM]
1 | O=C(O)Cn1ccc2cc(OCc3ccc(C4CCCC4)c(C(F)(F)F)c3)ccc21 | > 90 | ≤ 90 | > 90 | 20 µM and 8.3 µg/mL | – | – | – | – | – | – | – | – | –
2 | O=C(O)CC1CCc2c1[nH]c1ccc(OCc3noc(-c4ccc(C(F)(F)F)cc4)n3)cc21 (stereo not drawn) | > 90 | ≤ 90 | > 90 | > 40 µM and > 18.3 µg/mL | – | – | – | – | – | – | – | – | –
3 | O=C(O)Cc1c[nH]c2ccc(OCc3ccc(C4CCCC4)c(C(F)(F)F)c3)cc12 | > 90 | ≤ 90 | > 90 | 20 µM and 8.3 µg/mL | – | – | – | – | – | – | – | – | –
4 | O=C(O)CC1CCc2c1[nH]c1ccc(OCc3ccc(C4CCCCC4)c(C(F)(F)F)c3)cc21 (stereo not drawn) | > 90 | ≤ 90 | > 90 | 5 µM and 2.4 µg/mL | – | – | – | – | – | – | – | – | –
5 | O=C(O)Cc1ccc(OCc2ccc(C3CCCC3)c(C(F)(F)F)c2)cn1 | > 90 | ≤ 90 | > 90 | > 40 µM and > 15.2 µg/mL | – | – | – | – | – | – | – | – | –
6 | CC(=O)NC[C@H]1CN(c2ccc(N3CCOCC3)c(F)c2)C(=O)O1 [LINEZOLID] | – | – | – | – | 5 (≈ 1.69 µg/mL) | 5 (≈ 1.69 µg/mL) | 5 (≈ 1.69 µg/mL) | – | – | – | – | – | –
7 | O=C(O)CC1CCc2c1[nH]c1ccc(OCc3cccc(C(F)(F)F)c3)cc21 (stereo not drawn) | > 90 | ≤ 90 | > 90 | > 40 µM and > 15.6 µg/mL | – | – | – | – | – | – | – | – | –
8 | O=C(O)CC1CCc2c1[nH]c1ccc(OCc3ccc(C4CCCC4)c(C(F)(F)F)c3)cc21 (racemic) | > 90 | ≤ 90 | > 90 | 5 µM and 2.3 µg/mL | – | – | – | – | – | – | – | – | –
9 | O=C(O)c1ccc(OCc2ccc(C3CCCC3)c(C(F)(F)F)c2)cn1 | > 90 | ≤ 90 | > 90 | 10 µM and 3.7 µg/mL | 10 (≈ 3.65 µg/mL) | 20 (≈ 7.31 µg/mL) | 20 (≈ 7.31 µg/mL) | 5 (≈ 1.83 µg/mL) | > 200 | 5 (≈ 1.83 µg/mL) | 5 (≈ 1.83 µg/mL) | 10 (≈ 3.65 µg/mL) | > 200
10 | O=C(O)CC1CCc2c1[nH]c1ccc(OCc3ccc(C4CCCC4)c(F)c3)cc21 (stereo not drawn) | > 90 | ≤ 90 | > 90 | 10 µM and 4.1 µg/mL | – | – | – | – | – | – | – | – | –
11 | O=C(O)c1cc2cc(OCc3ccc(C4CCCC4)c(C(F)(F)F)c3)ccc2[nH]1 | > 90 | ≤ 90 | > 90 | 5 µM and 2 µg/mL | 10 (≈ 4.03 µg/mL) | 10 (≈ 4.03 µg/mL) | 10 (≈ 4.03 µg/mL) | 5 (≈ 2.02 µg/mL) | > 200 | 5 (≈ 2.02 µg/mL) | 5 (≈ 2.02 µg/mL) | 2.5 (≈ 1.01 µg/mL) | > 200
12 | Cc1nc(-c2ccc(C(F)(F)F)cc2)sc1COc1ccc2[nH]c3c(c2c1)CCC3CC(=O)O (stereo not drawn) | > 90 | ≤ 90 | > 90 | 20 µM and 9.7 µg/mL | – | – | – | – | – | – | – | – | –
13 | O=C(O)CC1CCCc2c1[nH]c1ccc(OCc3ccc(C4CCCC4)c(C(F)(F)F)c3)cc21 (stereo not drawn) | > 90 | ≤ 90 | > 90 | 5 µM and 2.4 µg/mL | 5 (≈ 2.36 µg/mL) | 5 (≈ 2.36 µg/mL) | 10 (≈ 4.72 µg/mL) | 10 (≈ 4.72 µg/mL) | > 200 | 5 (≈ 2.36 µg/mL) | 5 (≈ 2.36 µg/mL) | 5 (≈ 2.36 µg/mL) | > 200
14 | O=C(O)CC1CCc2c1[nH]c1ccc(OCc3ccc(N4CCOCC4)c(C(F)(F)F)c3)cc21 (stereo not drawn) | > 90 | ≤ 90 | > 90 | > 40 µM and > 19 µg/mL | – | – | – | – | – | – | – | – | –
15 | CC(C)Cc1ccc(COc2ccc3[nH]c4c(c3c2)CCC4CC(=O)O)cc1C(F)(F)F (stereo not drawn) | > 90 | ≤ 90 | > 90 | 10 µM and 4.5 µg/mL | – | – | – | – | – | – | – | – | –
16 | O=C(O)CC1CCc2c1[nH]c1ccc(OCc3ccc(C4CCCC4)c(OC(F)(F)F)c3)cc21 (stereo not drawn) | > 90 | ≤ 90 | > 90 | 5 µM and 2.4 µg/mL | – | – | – | – | – | – | – | – | –
17 | O=C(O)CC1CCc2c1[nH]c1ccc(OCc3ccc(-c4cccs4)c(C(F)(F)F)c3)cc21 (stereo not drawn) | > 90 | ≤ 90 | > 90 | 10 µM and 4.7 µg/mL | – | – | – | – | – | – | – | – | –
18 | CCOC(=O)CC1CCc2c1[nH]c1ccc(OCc3ccc(C4CCCC4)c(C(F)(F)F)c3)cc21 (stereo not drawn) | > 90 | ≤ 90 | > 90 | > 40 µM and > 19.4 µg/mL | – | – | – | – | – | – | – | – | –
19 | CCCCCCCCOc1ccc2[nH]c3c(c2c1)CCC3CC(=O)O (stereo not drawn) | > 90 | ≤ 90 | > 90 | 40 µM and 13.7 µg/mL | – | – | – | – | – | – | – | – | –
20 | CCCCc1ccc(COc2ccc3[nH]c4c(c3c2)CCC4CC(=O)O)cc1C(F)(F)F (stereo not drawn) | > 90 | ≤ 90 | > 90 | 10 µM and 4.5 µg/mL | – | – | – | – | – | – | – | – | –
21 | O=C(O)CC1CCc2c1[nH]c1ccc(OCc3ccc(C4CCCC4)cc3)cc21 (stereo not drawn) | > 90 | ≤ 90 | > 90 | 20 µM and 7.8 µg/mL | – | – | – | – | – | – | – | – | –
22 | O=C(O)CC1CCc2c1[nH]c1ccc(OCc3ccc(-c4ccc(Cl)s4)c(C(F)(F)F)c3)cc21 (stereo not drawn) | > 90 | ≤ 90 | > 90 | 5 µM and 2.5 µg/mL | – | – | – | – | – | – | – | – | –
23 | Cc1[nH]c2ccc(OCc3ccc(C4CCCC4)c(C(F)(F)F)c3)cc2c1CC(=O)O | > 90 | ≤ 90 | > 90 | 20 µM and 8.6 µg/mL | – | – | – | – | – | – | – | – | –
24 | FC(F)(F)c1cc(COc2ccc3[nH]ccc3c2)ccc1C1CCCC1 | > 90 | ≤ 90 | > 90 | > 40 µM and > 14.4 µg/mL | – | – | – | – | – | – | – | – | –
25 | O=C(O)CCc1c[nH]c2ccc(OCc3ccc(C4CCCC4)c(C(F)(F)F)c3)cc12 | > 90 | ≤ 90 | > 90 | 20 µM and 8.6 µg/mL | – | – | – | – | – | – | – | – | –
26 | N#Cc1cc(COc2ccc3[nH]c4c(c3c2)CCC4CC(=O)O)ccc1C1CCCC1 (stereo not drawn) | > 90 | ≤ 90 | > 90 | 40 µM and 16.6 µg/mL | – | – | – | – | – | – | – | – | –
27 | NC(=O)CC1CCc2c1[nH]c1ccc(OCc3ccc(C4CCCC4)c(C(F)(F)F)c3)cc21 (stereo not drawn) | > 90 | ≤ 90 | > 90 | 20 µM and 9.1 µg/mL | – | – | – | – | – | – | – | – | –
28 | O=C(O)CC1CCc2c1[nH]c1ccc(OCc3ccc(OCC4CCCC4)c(C(F)(F)F)c3)cc21 (stereo not drawn) | > 90 | ≤ 90 | > 90 | 10 µM and 4.9 µg/mL | – | – | – | – | – | – | – | – | –

— ChEMBL document CHEMBL5532643, “Design and synthesis of etrasimod derivatives as potent antibacterial agents against Gram-positive bacteria” (Eur J Med Chem, 2024)
